Data from patent publication US7632838B2, “11-beta HSD1 inhibitors” (Wyeth, priority 2006, dated 2009).

Molecular target: T1, human 11 b-HSD1 (Homo sapiens, UniProt P28845)
T1 construct: expressed in transfected cells
T1 sequence (P28845 whole entry): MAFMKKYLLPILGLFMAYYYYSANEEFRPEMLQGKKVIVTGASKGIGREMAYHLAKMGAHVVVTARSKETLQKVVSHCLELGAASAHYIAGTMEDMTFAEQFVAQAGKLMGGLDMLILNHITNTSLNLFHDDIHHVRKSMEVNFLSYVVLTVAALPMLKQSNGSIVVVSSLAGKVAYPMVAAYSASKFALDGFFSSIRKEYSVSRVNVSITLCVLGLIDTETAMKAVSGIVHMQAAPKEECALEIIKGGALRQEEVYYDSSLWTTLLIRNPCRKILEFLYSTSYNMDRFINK
Test: cell-based assay, stable CHO cell line expressing human 11 b-HSD1 (cortisone to cortisol, DiscoverX HitHunter Cortisol Assay)
Settings: 11βHSD1 inhibition; stated as 'less than about'; read-out: inhibition constant IC50
Protocol: Compounds described herein can be tested in a cell-based assay using a stable CHO cell line expressing human 11 b-HSD1. Cells are plated at 20,000 cells/well in 96 well plates and incubated overnight (12-16 hrs) at 37° C./5% CO2. Cells are treated with different concentration of compound in 90 microliter serum-free media and incubated for 30 minutes at 37° C./5% CO2. 10 ul of 5 micromolar cortisone (final concentration 500 nM) is then added to the cells and the plate is incubated at 37° C./5% CO2 for 120 minutes. 15 microliter of media is withdrawn and amount of cortisol in the media is measured using the DiscoverX HitHunter Cortisol Assay (DiscoverX corp, CA).
CC(C)(C)c1ccc(S(=O)(=O)N2CCN(c3ncccc3Cl)CC2)cc1 [Example 2A, 1-[(4-tert-butylphenyl)sulfonyl]-4-(3-chloropyridin-2-yl)piperazine] gave an IC50 of less than 10 µM.
With O=S(=O)(c1ccc2ccccc2c1)N1CCN(c2ncccc2Cl)CC1 [Example 2B, 1-(3-chloropyridin-2-yl)-4-(2-naphthylsulfonyl)piperazine] the IC50 was less than 10 µM.
O=S(=O)(c1ccccc1Cl)N1CCN(c2ncccc2Cl)CC1 [Example 2D, 1-[(2-chlorophenyl)sulfonyl]-4-(3-chloropyridin-2-yl)piperazine] showed an IC50 of less than 10 µM.
With O=S(=O)(c1ccc(Cl)cc1)N1CCN(c2ncccc2Cl)CC1 [Example 2E, 1-[(4-chlorophenyl)sulfonyl]-4-(3-chloropyridin-2-yl)piperazine] the IC50 was less than 10 µM.
Compound Cc1ccc(S(=O)(=O)N2CCN(c3ncccc3Cl)CC2)cc1 [Example 2F, 1-(3-chloropyridin-2-yl)-4-[(4-methylphenyl)sulfonyl]piperazine] has an IC50 of less than 10 µM.
Work on COc1ccc(S(=O)(=O)N2CCN(c3ncccc3Cl)CC2)cc1 [Example 2G, 1-(3-chloropyridin-2-yl)-4-[(4-methoxyphenyl)sulfonyl]piperazine] yielded an IC50 of less than 10 µM.
Work on O=S(=O)(c1ccc(-c2ccccc2)cc1)N1CCN(c2ncccc2Cl)CC1 [Example 2H, 1-(biphenyl-4-ylsulfonyl)-4-(3-chloropyridin-2-yl)piperazine] yielded an IC50 of less than 10 µM.
Work on O=S(=O)(Cc1ccccc1)N1CCN(c2ncccc2Cl)CC1 [Example 2I, 1-(benzylsulfonyl)-4-(3-chloropyridin-2-yl)piperazine] yielded an IC50 of less than 10 µM.
With O=S(=O)(c1ccc(C(F)(F)F)cc1Br)N1CCN(c2ncccc2Cl)CC1 [Example 2J, 1-{[2-bromo-4-(trifluoromethyl)phenyl]sulfonyl}-4-(3-chloropyridin-2-yl)piperazine] the IC50 was less than 10 µM.
C[C@H]1CN(C(=O)OCc2ccccc2)C[C@H](C)N1S(=O)(=O)c1ccc(C(C)(C)C)cc1 [Example 5, Benzyl (3S,5S)-4-[(4-tert-butylphenyl)sulfonyl]-3,5-dimethylpiperazine-1-carboxylate] showed an IC50 of less than 10 µM.
C[C@H]1CN(c2ncccc2Cl)C[C@H](C)N1S(=O)(=O)c1ccc(C(C)(C)C)cc1 [Example 6, (2S,6S)-1-[(4-tert-butylphenyl)sulfonyl]-4-(3-chloropyridin-2-yl)-2,6-dimethylpiperazine] gave an IC50 of less than 10 µM.
O=S(=O)(c1ccc2ccccc2c1)N1CCN(c2ccc(F)cc2C(F)(F)F)CC1 [Example 9F, 1-[4-fluoro-2-(trifluoromethyl)phenyl]-4-(2-naphthylsulfonyl)piperazine] gave an IC50 of less than 10 µM.
O=S(=O)(c1ccc(Cl)c(Cl)c1)N1CCN(c2ncccc2F)CC1 [Example 13A, 1-[(3,4-dichlorophenyl)sulfonyl]-4-(3-fluoropyridin-2-yl)piperazine] showed an IC50 of less than 10 µM.
In the case of N#Cc1cccnc1N1CCN(S(=O)(=O)c2ccc(Cl)c(Cl)c2)CC1 [Example 13B, 2-{4-[(3,4-dichlorophenyl)sulfonyl]piperazin-1-yl}nicotinonitrile], the IC50 is reported as less than 10 µM.
Compound O=[N+]([O-])c1cccnc1N1CCN(S(=O)(=O)c2ccc(Cl)c(Cl)c2)CC1 [Example 13C, 1-[(3,4-dichlorophenyl)sulfonyl]-4-(3-nitropyridin-2-yl)piperazine] has an IC50 of less than 10 µM.

Test system: not given
Test: not given
Settings: not given
O=C(N1CCC(Oc2c(Cl)cccc2Cl)CC1)C12CC3CC(CC(C3)C1)C2 [Example 18D, Adamantan-1-yl-[4-(2,6-dichloro-phenoxy)-piperidin-1-yl]-methanone] showed a melting point of 191 to 199 °C.
